According to ChEMBL document CHEMBL1156034, “The first pharmacophore model for potent NF-kappaB inhibitors” (Bioorg Med Chem Lett, 2009):
Where a SMILES comes first, the peptide text is derived from it. The star is where a group is joined. Cbz = O=C(OCc1ccccc1)*

assay: Inhibition of NF-kappaB activation

| Structure (SMILES) | IC50 |
| --- | --- |
| Nc1ccc2ncnc(NCCc3ccc(OCc4ccccn4)cc3)c2c1 [listing 1 of 2 here] | 0.014 µM |
| COc1cc2ccc(C)nc2c2c1-c1cc(C)ccc1S(=O)(=O)N2 | 0.9 µM |
| CCCCOc1ccc(CCNc2ncnc3ccc(N)cc23)cc1 | 0.011 µM |
| Nc1ccc2ncnc(NCCc3ccc(S(N)(=O)=O)cc3)c2c1 | > 10 µM |
| COc1ccc(CCNc2ncnc3ccc(N)cc23)cc1 | 0.09 µM |
| Clc1ccc(CCNc2ncnc3ccc(Oc4ccccc4)cc23)cc1 | 7.34 µM |
| Nc1ccc2ncnc(NCCc3ccc(OCc4ccccn4)cc3)c2c1 [listing 2 of 2 here] | 0.012 µM |
| Nc1cc2c(NCCc3ccc(Cl)cc3)ncnc2cc1Cl | 0.429 µM |
| Cc1ccc2ccc3c(c2n1)NS(=O)(=O)c1ccc(O)cc1-3 | 10 µM |
| O=S1(=O)Nc2c(ccc3cccnc23)-c2cc(C(F)(F)F)ccc21 | 1 µM |
| Cc1ccc2cccc(NS(=O)(=O)c3ccc(Cl)s3)c2n1 | 1 µM |
| CC(C)c1cccc(C(C)C)c1N1C(=O)c2ccc(O)cc2C1=O | 0.53 µM |
| COc1ccc([C@@]23Oc4cc(OC)cc(OC)c4[C@]2(O)[C@H](O)C[C@H]3c2ccccc2)cc1 [ROCAGLAOL] | 0.499 µM |
| Nc1ccc2ncnc(NCCc3ccc(Cl)cc3)c2c1 | 0.176 µM |
| COc1cccc(CCNc2ncnc3ccc(N)cc23)c1 | 0.21 µM |
| O=[N+]([O-])c1cc2c(NCCc3ccc(Cl)cc3)ncnc2cc1Cl | 9.06 µM |
| COc1cc(NS(=O)(=O)c2ccc(C)cc2N)c2ncccc2c1 | 1 µM |
| Nc1ccc2ncnc(NCCc3ccc(OCc4ccc5ccccc5n4)cc3)c2c1 | 0.093 µM |
| COc1ccccc1CCNc1ncnc2ccc(N)cc12 | 0.155 µM |
| Cc1ccc2cccc(NS(=O)(=O)c3cccc([N+](=O)[O-])c3)c2n1 | 0.9 µM |
| Cc1ccc(S(=O)(=O)Nc2cccc3cccnc23)c([N+](=O)[O-])c1 | 2.1 µM |
| Oc1ccc2ncnc(NCCc3ccc(Cl)cc3)c2c1 | 0.313 µM |
| CCOc1ccc(CCNc2ncnc3ccc(N)cc23)cc1 | 0.021 µM |

| Structure (SMILES) | IC50 |
| --- | --- |
| O=S1(=O)Nc2c(ccc3cccnc23)-c2cc(F)ccc21 | 1.7 µM |
| COc1cc(NS(=O)(=O)c2ccc(C)cc2[N+](=O)[O-])c2ncccc2c1 | 2.1 µM |
| COc1ccc(S(=O)(=O)Nc2cccc3ccc(C)nc23)c([N+](=O)[O-])c1 | 1 µM |
| O=S(=O)(Nc1cccc2cccnc12)c1ccc(Cl)s1 | 1.3 µM |
| Cc1ccc2cccc(NS(=O)(=O)c3ccc(C(F)(F)F)cc3[N+](=O)[O-])c2n1 | 1.1 µM |
| CCCCCOc1ccc(CCNc2ncnc3ccc(N)cc23)cc1 | 0.002 µM |
| CC(=O)Nc1ccc(CCNc2ncnc3ccc(N)cc23)cc1 | 5.98 µM |
| c1ccc(CCCNc2ncnc3ccccc23)cc1 | 2.38 µM |
| Nc1ccc2c(NCCc3ccc(Cl)cc3)ncnc2c1 | 2.2 µM |
| Nc1ccc2ncnc(NCCc3cccnc3)c2c1 | 8.27 µM |
| COC(=O)C1[C@@H](O)[C@@]2(O)c3c(OC)cc(OC)cc3O[C@@]2(c2ccc3c(c2)OCO3)[C@@H]1c1ccccc1 (some centres not stated) | 0.319 µM |
| COc1ccc2c(c1)-c1ccc3ccc(C)nc3c1NS2(=O)=O | 2.5 µM |
| NC(=O)c1ccc(CCNc2ncnc3ccc(N)cc23)cc1 | 7.33 µM |
| CC(C)C[C@@H](C=O)NC(=O)[C@H](CC(C)C)NC(=O)[C@H](CC(C)C)NC(=O)OCc1ccccc1 [MG-132] (Cbz-Leu-Leu-Leu-aldehyde) | 0.715 µM |
| Nc1ccc2ncnc(NCCc3ccc(O)cc3)c2c1 | 3.65 µM |
| COc1cnc2c3c(ccc2c1)-c1ccccc1S(=O)(=O)N3 | 2.5 µM |
| Clc1ccc(CCNc2ncnc3ccccc23)cc1 | 0.63 µM |
| CN(C)C(=O)c1ccc(CCNc2ncnc3ccc(N)cc23)cc1 | 2.59 µM |
| O=S1(=O)Nc2c(ccc3cccnc23)-c2ccccc21 | 1 µM |
| Nc1ccccc1S(=O)(=O)Nc1cccc2cccnc12 | 2 µM |
| COc1cc2cccnc2c2c1-c1cc(C)ccc1S(=O)(=O)N2 | 1.2 µM |
| Cc1ccc2c(c1)-c1ccc3cccnc3c1NS2(=O)=O | 0.6 µM |
| CC(C)c1cccc(C(C)C)c1N1C(=O)c2ccc(N)cc2C1=O | 29.5 µM |

| Structure (SMILES) | IC50 |
| --- | --- |
| Clc1ccc(CCNc2ncnc3ccc(Br)cc23)cc1 | 0.851 µM |
| Clc1ccc(CCNc2nccc3ccccc23)cc1 | > 10 µM |
| COC(=O)C1[C@@H](O)[C@@]2(O)c3c(cc4c(c3OC)OCO4)O[C@@]2(c2ccc(OC)cc2)[C@@H]1c1ccccc1 (some centres not stated) | 0.243 µM |
| Clc1ccc(CCCNc2ncnc3ccccc23)cc1 | 1.4 µM |
| O=[N+]([O-])c1ccccc1S(=O)(=O)Nc1cccc2cccnc12 | 3.2 µM |
| Nc1ccc2ncnc(NCCN3CCCCC3)c2c1 | > 10 µM |
| O=[N+]([O-])c1ccc(S(=O)(=O)Nc2cccc3cccnc23)cc1 | 1.5 µM |
| C#CCOc1ccc(CCNc2ncnc3ccc(N)cc23)cc1 | 0.04 µM |
| COc1ccc2c(c1)-c1ccc3cccnc3c1NS2(=O)=O | 1 µM |
| Nc1ccc2ncnc(NCCN3CCOCC3)c2c1 | > 10 µM |
| Clc1ccc(CCNc2nncc3ccccc23)cc1 | > 10 µM |
| O=[N+]([O-])c1ccc2ncnc(NCCc3ccc(Cl)cc3)c2c1 | 1.52 µM |
| Cc1ccc([N+](=O)[O-])cc1S(=O)(=O)Nc1cccc2cccnc12 | 1.6 µM |
| Nc1ccc2ncnc(NCCc3ccc(Oc4ccccc4)cc3)c2c1 | 0.011 µM |
| Cc1ccc2ccc3c(c2n1)NS(=O)(=O)c1ccc(C(F)(F)F)cc1-3 | 1.2 µM |
| Nc1ccc2ncnc(NCCc3ccccc3Cl)c2c1 | 0.254 µM |
| Clc1ccc(CCNc2ncnc3ccc(Cl)cc23)cc1 | 0.344 µM |
| O=S(=O)(Nc1cccc2cccnc12)c1ccc(Br)s1 | 1.1 µM |
| CC(C)Oc1ccc(CCNc2ncnc3ccc(N)cc23)cc1 | 0.04 µM |
| Nc1ccc2ncnc(NCCc3cccc(Cl)c3)c2c1 | 0.389 µM |
| Nc1ccc2ncnc(NCCc3ccc(F)cc3)c2c1 | 0.574 µM |
| CC(C)c1cccc(C(C)C)c1N1C(=O)c2cccc(O)c2C1=O | 4.95 µM |
| Cc1ccc2ncnc(NCCc3ccc(Cl)cc3)c2c1 | 0.73 µM |

| Structure (SMILES) | IC50 |
| --- | --- |
| COc1ccc([C@@]23Oc4cc(OC)cc(OC)c4[C@]2(O)[C@H](O)[C@H](C(N)=O)[C@H]3c2ccccc2)cc1 [DIDESMETHYLROCAGLAMIDE] | 0.044 µM |
| Nc1ccc2ncnc(NCCc3ccccc3)c2c1 | 0.311 µM |
| CC(=O)Nc1ccc2ncnc(NCCc3ccc(Cl)cc3)c2c1 | 4.56 µM |
| Cc1ccc2cccc(NS(=O)(=O)c3ccc(Br)s3)c2n1 | 1.4 µM |
| C=CCOc1ccc(CCNc2ncnc3ccc(N)cc23)cc1 | 0.012 µM |
| O=C1c2ccc(O)cc2C(=O)N1c1c(Br)cccc1Br | 0.43 µM |
| Cc1ccc(CCNc2ncnc3ccc(N)cc23)cc1 | 0.21 µM |
| Nc1ccc2ncnc(NCCC3CCCCC3)c2c1 | 0.685 µM |
| O=S(=O)(Nc1cccc2cccnc12)c1cccs1 | 3.6 µM |
| Clc1ccc(CNc2ncnc3ccccc23)cc1 | 1.83 µM |
| Cc1ccc2cccc(NS(=O)(=O)c3ccccc3[N+](=O)[O-])c2n1 | 3.8 µM |
| O=S1(=O)Nc2c(ccc3cccnc23)-c2cc(Cl)ccc21 | 1.1 µM |
| Clc1ccc(CCNc2ccnc3ccccc23)cc1 | 1.39 µM |
| Nc1ccc2ncnc(NCCN3CCCC3)c2c1 | 3.69 µM |
| COC(=O)C1[C@@H](O)[C@@]2(O)c3c(OC)cc(OC)cc3O[C@@]2(c2ccc(OC)cc2)[C@@H]1c1ccccc1 (some centres not stated) | 0.197 µM |
| O=[N+]([O-])c1cc(C(F)(F)F)ccc1S(=O)(=O)Nc1cccc2cccnc12 | 3.7 µM |
| Nc1ccc2ncnc(NCCc3ccc(Br)cc3)c2c1 | 0.207 µM |
| CCCOc1ccc(CCNc2ncnc3ccc(N)cc23)cc1 | 0.02 µM |
| Cc1csc2ncnc(NC3Cc4ccc(C(=O)N5CCOCC5)cc4C3)c12 (configuration not stated) | 0.038 µM |
| O=[N+]([O-])c1ccc2c(NCCc3ccc(Cl)cc3)ncnc2c1 | 1.77 µM |
| CCCCCCOc1ccc(CCNc2ncnc3ccc(N)cc23)cc1 | 0.004 µM |
| Clc1ccc(Nc2ncnc3ccccc23)cc1 | > 10 µM |
| Cc1ccc2cccc(NS(=O)(=O)c3ccccc3N)c2n1 | 2.8 µM |
